Laboratory results: patent US20080194530A1, “Chemical Compounds” (Phytopharm PLC, priority 2004, published 2008)

Legend:
[1] = Desolvation / dehydration of crystalline forms on drying or heating; type: physicochemical; settings: for temperature of heating/drying at which the form is converted to non-solvated non-hydrated form B: desolvation or dehydration to form B
[2] = Solid-state stability of crystalline forms on exposure to humidity; type: physicochemical

Compound: C[C@H]1CC[C@@]2(OC1)O[C@H]1C[C@H]3[C@@H]4CC[C@@H]5C[C@@H](O)CC[C@]5(C)[C@H]4CC[C@]3(C)[C@H]1[C@@H]2C [form A, sarsasapogenin]
- stability with respect to further drying ([1]; after filtration and initial drying): reasonable stability
- temperature of heating/drying at which the form is converted to non-solvated non-hydrated form B ([1]; listed as hemi acetone solvate): 80-100 °C
- form change on exposure to humidity ([2]; humidity of 50% or greater): led to the formation of form C

Compound: C[C@H]1CC[C@@]2(OC1)O[C@H]1C[C@H]3[C@@H]4CC[C@@H]5C[C@@H](O)CC[C@]5(C)[C@H]4CC[C@]3(C)[C@H]1[C@@H]2C [form C, sarsasapogenin]
- temperature of heating/drying at which the form is converted to non-solvated non-hydrated form B [1]: 40-60 °C

Compound: CC1CCC2(OC1)O[C@H]1CC3C4CC[C@@H]5C[C@@H](O)CC[C@]5(C)C4CC[C@]3(C)C1[C@@H]2C (stereo partly drawn) [form D, sarsasapogenin]
- solvate stoichiometry on filtration and drying [1]: variable stoichiometry

Compound: C[C@H]1CC[C@@]2(OC1)O[C@H]1C[C@H]3[C@@H]4CC[C@@H]5C[C@@H](O)CC[C@]5(C)[C@H]4CC[C@]3(C)[C@H]1[C@@H]2C [form H, sarsasapogenin]
- form change on storage ([2]; 40° C. and 75% relative humidity for 18 days): furnish form I
